Patent US20250282782A1, “PYRAZOLOPYRAZINE COMPOUNDS AS SHP2 INHIBITORS” (Genzyme Corporation, priority 2021, published 2025)

Target: human recombinant 6His-Nterm SHP2 full-length (Thr2-Arg593) (Homo sapiens (Human), UniProt Q06124)
Experiment: SHP2 phosphatase assay (DiFMUP substrate, activating peptide)
Assay type: biochemical
Description: Inhibition of SHP2 phosphatase activity was evaluated using human recombinant 6His-Nterm (SEQ ID NO: 1) SHP2 full-length (Thr2-Arg593, R&D system), NsCs bi-phosphorylated activating peptide (NH2-LN(pY)AQLWHA(PEG8)LTI(pY)ATIRRF-Amide.acetate (SEQ ID NO: 2), Thermofischer Scientific) and DiFMUP as surrogate phosphatase substrate (Molecular Probes). All reactions were performed at room temperature in 384-well black polystyrene non-binding plate (Corning) with the assay buffer (50 mM HEPES-NaOH pH 7.2, 100 mM NaCl, 0.5 mM EDTA, 0.001% Brij35 including 0.02% BSA and 1 mM DTT added extemporaneously). SHP2 was pre-incubated at least 10 min with the activating peptide (0.2 nM and 100 nM, respectively). 10 μL of this mixture was added to the assay plate, that already contained 15 nL of the compound (1000-0.05 nM). After 30 min pre-incubation, the enzymatic reaction was initiated by the addition of 5 μL DiFMUP in assay buffer without BSA (20 μM). The reaction was stopped by the addition of 15 μL sodium pervanadate solution (100 μM) after 45 min incubation. The fluorescence signal was measured at excitation and emission wavelengths of 350 nm and 450 nm, respectively, using a Pherastar instrument (BMG-LabTech). Percentage of inhibition (I %) were calculated from the fluorescence signal at 450 nm of the positive and negative control using the following formula: […]
Positive control (Max): corresponds to the maximum fluorescence signal obtained in the presence of 15 nL DMSO replacing the inhibitor in the pre-incubation step.
Negative control (Min): corresponds to the minimum signal obtained in the presence of 1 μM of RMC-4550, the structure of which is shown below:
The IC50 were then calculated from a dose-response curve of 10 concentrations of tested compound using the 4-parameter logistic model:
The parameters A and (A+C) are the lower and upper limits, B is the slope of the curve at the inflexion point, M parameter is the logarithm of the abscissa at the inflexion point, and X is the concentration of compound.

[1] = full-length SHP2 0.2 nM pre-activated with bi-phosphorylated peptide 100 nM, DiFMUP 20 μM, 10-concentration dose-response

Sequence of human recombinant 6His-Nterm SHP2 full-length (Thr2-Arg593) (Q06124 2-593): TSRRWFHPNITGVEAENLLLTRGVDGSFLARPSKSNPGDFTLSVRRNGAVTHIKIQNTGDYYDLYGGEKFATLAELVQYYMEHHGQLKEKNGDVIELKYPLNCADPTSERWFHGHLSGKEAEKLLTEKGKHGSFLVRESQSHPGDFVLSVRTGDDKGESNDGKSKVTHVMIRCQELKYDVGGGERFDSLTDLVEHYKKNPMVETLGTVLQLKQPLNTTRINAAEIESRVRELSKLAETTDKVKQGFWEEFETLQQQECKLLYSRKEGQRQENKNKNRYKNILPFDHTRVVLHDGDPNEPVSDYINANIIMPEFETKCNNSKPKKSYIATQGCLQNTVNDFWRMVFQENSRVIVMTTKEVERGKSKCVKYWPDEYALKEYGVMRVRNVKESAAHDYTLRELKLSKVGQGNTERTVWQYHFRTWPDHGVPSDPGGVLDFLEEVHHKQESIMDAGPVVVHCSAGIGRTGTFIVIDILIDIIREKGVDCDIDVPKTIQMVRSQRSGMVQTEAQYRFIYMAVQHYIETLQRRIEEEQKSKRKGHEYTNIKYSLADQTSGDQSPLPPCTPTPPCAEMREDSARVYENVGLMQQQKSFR

Row | Compound | IC50 (Table 11 summary) [nM] | IC50 [1] [nM]
1 | COc1cc2c(cn1)CC1(CCN(c3nc(C)c(-c4cnn(C)c4C)n4nccc34)CC1)[C@@H]2N [Compound 132, (5S)-1′-[7-(1,5-dimethylpyrazol-4-yl)-6-methyl-pyrazolo[1,5-a]pyrazin-4-yl]-3-methoxy-spiro[5,7-dihydrocyclopenta[c]pyridine-6,4′-piperidine]-5-amine] | 34 | 34
2 | Cc1nc(N2CCC3(CC2)Cc2ccncc2[C@H]3N)c2ccnn2c1-c1cnn(C)c1C [Compound 133, (7S)-1′-[7-(1,5-dimethylpyrazol-4-yl)-6-methyl-pyrazolo[1,5-a]pyrazin-4-yl]spiro[5,7-dihydrocyclopenta[c]pyridine-6,4′-piperidine]-7-amine] | 21 | 21
3 | Cc1nc(N2CCC3(CC2)Cc2ncccc2[C@H]3N)c2c(CO)cnn2c1-c1ccccc1F [Compound 226, [4-[(5S)-5-aminospiro[5,7-dihydrocyclopenta[b]pyridine-6,4′-piperidine]-1′-yl]-7-(2-fluorophenyl)-6-methyl-pyrazolo[1,5-a]pyrazin-3-yl]methanol] | > 1000 | > 1000
